Where a name gives a salt, the structure may show the parent alone. Read-outs that look alike come from different tables or passages of the source.
Legend:
[1] = tested on: SARS-CoV-2; type: cell-based; details: Calu-3 cells
[2] = tested on: SARS-CoV-2; type: cell-based
[3] = tested on: Caco-2 cells; details: tested concentrations (data not shown)
[4] = tested on: HEK-293T cells; type: cell-based, human; details: tested concentrations (data not shown)
[5] = biological target: T1, TMPRSS2 (Homo sapiens, UniProt O15393); assay: TMPRSS2 proteolytic activity in TMPRSS2-overexpressing HEK-293T cells, fluorogenic substrate BOC-QAR-AMC; type: cell-based
T1 construct: expressed in transfected cells; host or cells: HEK-293T
T1 sequence (O15393 whole entry): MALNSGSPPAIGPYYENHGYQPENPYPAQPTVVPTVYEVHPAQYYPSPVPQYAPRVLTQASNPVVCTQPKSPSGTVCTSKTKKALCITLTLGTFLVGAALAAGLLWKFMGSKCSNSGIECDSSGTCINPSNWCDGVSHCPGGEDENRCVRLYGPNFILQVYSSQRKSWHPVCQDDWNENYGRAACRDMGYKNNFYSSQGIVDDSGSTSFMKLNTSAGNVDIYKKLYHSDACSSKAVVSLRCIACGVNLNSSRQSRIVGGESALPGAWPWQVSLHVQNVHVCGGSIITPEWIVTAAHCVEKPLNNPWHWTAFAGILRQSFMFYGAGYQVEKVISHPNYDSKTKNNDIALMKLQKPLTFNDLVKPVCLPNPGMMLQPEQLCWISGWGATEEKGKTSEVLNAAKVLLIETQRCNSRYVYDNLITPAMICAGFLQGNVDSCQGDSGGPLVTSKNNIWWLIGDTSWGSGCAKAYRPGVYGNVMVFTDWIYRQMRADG
Method: B. Arbitrary fluorescence unit (AFU) measurements of control or TMPRSS-overexpressing cells incubated with BOC-QAR-AMC for 75 minutes at 37° C. are shown. Wells containing PBS and BOC-QAR-AMC were used as background fluorescence reads. C. Fluorescence of control or TMPRSS2-overexpressing cells was measured every 15 minutes for a total time of 180 minutes. D. The average proteolytic activity rate per minute of control or TMPRSS2-overexpressing cells. The fluorescent signal was measured by the UV filter (excitation 365 nm and emission 410 nm).
The results in A-C are presented as the means±SE from at least 3 independent experiments performed in duplicate and/or triplicate.
The following describes the development of an experimental framework for quantifying TMPRSS2 proteolytic activity. TMPRSS2 with a C-terminal V5 tag was overexpressed in a human cell line, HEK-293T, because of its high transfectability.
The effect of protease inhibitors on TMPRSS2 activity was tested.

| Molecule | SARS-CoV-2 plaque formation ([1]; 24 hours after infection) | SARS-CoV-2 plaque formation ([1]; 48 hours after infection) | decrease in viral load (genomic SARS-CoV-2 from intracellular RNA) compared with untreated control cells ([2]; Caco-2 cells, 10 μM, twenty hours after infection) [fold] | toxicity in Caco-2 cells [3] | toxic effects in viability assays [4] | IC50 ([5]; BOC-QAR-AMC, read-out: IC50 of inhibition of TMPRSS2 proteolytic activity) [nM] | decrease in viral load (genomic SARS-CoV-2 from intracellular RNA) compared with untreated control cells [2] [fold] | inhibition of TMPRSS2 proteolytic activity ([5]; all tested concentrations) |
| --- | --- | --- | --- | --- | --- | --- | --- | --- |
| CN(C)C(=O)COC(=O)Cc1ccc(OC(=O)c2ccc(NC(=N)N)cc2)cc1 [camostat mesylate, reference compound] | decreased SARS-CoV-2 plaque formation | effect of camostat lasted | −3.9 | nontoxic |  |  |  |  |
| alpha 1 antitrypsin [A1AT] |  |  |  | nontoxic | did not demonstrate toxic effects | 357 | −2.6 |  |
| secretory leukocyte protease inhibitor (protein, UniProt P03973 26-132, looked up) Antileukoproteinase: SGKSFKAGVCPPKKSAQCLRYKKPECQSDWQCPGKKRCCPDTCGIKCLDPVDTPNPTRRKPGKCPVTYGQCLMLNPPNFCEMDGQCKRDLKCCMGMCGKSCVSPVKA |  |  |  |  |  |  |  | none of the tested concentrations of SLPI inhibited TMPRSS2 proteolytic activity |
